Values quoted from earlier work in US4749688A, “Use of neutral metalloendopeptidase inhibitors in the treatment of hypertension” (Schering Corporation, priority 1986, dated 1988).

Experiments:
[1] = target: peripheral ACE (Homo sapiens, UniProt P12821)
[2] = in vivo

Sequence of peripheral ACE (P12821 30-1306): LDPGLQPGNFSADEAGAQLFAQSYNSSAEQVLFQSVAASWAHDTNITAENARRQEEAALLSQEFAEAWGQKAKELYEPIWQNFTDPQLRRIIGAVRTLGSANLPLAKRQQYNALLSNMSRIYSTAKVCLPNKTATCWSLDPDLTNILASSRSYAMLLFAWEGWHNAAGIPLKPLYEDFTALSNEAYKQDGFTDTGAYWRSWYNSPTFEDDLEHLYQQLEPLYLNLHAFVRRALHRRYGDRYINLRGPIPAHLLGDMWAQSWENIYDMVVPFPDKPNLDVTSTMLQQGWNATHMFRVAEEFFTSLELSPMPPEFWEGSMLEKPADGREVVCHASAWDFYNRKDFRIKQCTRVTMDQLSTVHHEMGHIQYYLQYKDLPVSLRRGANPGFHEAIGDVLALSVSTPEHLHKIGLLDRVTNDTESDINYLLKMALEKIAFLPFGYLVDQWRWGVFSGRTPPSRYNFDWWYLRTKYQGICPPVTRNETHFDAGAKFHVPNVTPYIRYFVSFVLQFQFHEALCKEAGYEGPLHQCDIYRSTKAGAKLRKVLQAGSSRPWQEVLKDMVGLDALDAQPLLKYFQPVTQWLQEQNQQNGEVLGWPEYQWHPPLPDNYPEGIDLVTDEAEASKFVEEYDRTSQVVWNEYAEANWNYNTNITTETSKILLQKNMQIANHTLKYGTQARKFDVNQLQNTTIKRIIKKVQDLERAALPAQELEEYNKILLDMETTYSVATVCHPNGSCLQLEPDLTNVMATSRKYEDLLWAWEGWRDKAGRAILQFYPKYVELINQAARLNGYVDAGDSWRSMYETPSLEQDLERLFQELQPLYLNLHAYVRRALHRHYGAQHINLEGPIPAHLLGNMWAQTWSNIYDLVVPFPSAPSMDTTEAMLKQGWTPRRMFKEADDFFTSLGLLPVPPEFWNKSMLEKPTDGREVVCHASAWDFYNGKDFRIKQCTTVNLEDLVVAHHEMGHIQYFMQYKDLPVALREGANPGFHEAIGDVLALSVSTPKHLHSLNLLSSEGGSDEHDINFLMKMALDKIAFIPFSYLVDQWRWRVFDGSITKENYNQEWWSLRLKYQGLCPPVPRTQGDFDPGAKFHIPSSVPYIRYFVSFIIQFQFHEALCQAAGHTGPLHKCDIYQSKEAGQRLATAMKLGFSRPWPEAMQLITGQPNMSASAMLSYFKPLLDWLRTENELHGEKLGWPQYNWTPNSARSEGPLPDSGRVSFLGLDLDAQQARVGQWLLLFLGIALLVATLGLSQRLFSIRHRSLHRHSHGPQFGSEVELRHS

In the case of `O=C(O)CNC(=O)C(CS)Cc1ccccc1` (racemic) [thiorphan, N-[(R,S)-3-mercapto-2-benzylpropanoyl]-glycine], the “inhibition of peripheral ACE” value [1] is listed as “inhibit peripheral ACE”, the blood pressure [2] is listed as “not affected” and the heart rate [2] is listed as “not affected”.
